Assays:
IRAK4 [1] = target: T1, IRAK4 (Homo sapiens, UniProt Q9NWZ3); test: hPBMC IRAK4 degradation flow assay (monocytes); type: cell-based; design: endogenous in cells; host or cells: human PBMCs (monocytes, CD14 positive gate); conditions: CD14 positive monocytes, 20 h, read-out: hPBMC monocyte DC50 at 20 h
T1 sequence (Q9NWZ3 1-460): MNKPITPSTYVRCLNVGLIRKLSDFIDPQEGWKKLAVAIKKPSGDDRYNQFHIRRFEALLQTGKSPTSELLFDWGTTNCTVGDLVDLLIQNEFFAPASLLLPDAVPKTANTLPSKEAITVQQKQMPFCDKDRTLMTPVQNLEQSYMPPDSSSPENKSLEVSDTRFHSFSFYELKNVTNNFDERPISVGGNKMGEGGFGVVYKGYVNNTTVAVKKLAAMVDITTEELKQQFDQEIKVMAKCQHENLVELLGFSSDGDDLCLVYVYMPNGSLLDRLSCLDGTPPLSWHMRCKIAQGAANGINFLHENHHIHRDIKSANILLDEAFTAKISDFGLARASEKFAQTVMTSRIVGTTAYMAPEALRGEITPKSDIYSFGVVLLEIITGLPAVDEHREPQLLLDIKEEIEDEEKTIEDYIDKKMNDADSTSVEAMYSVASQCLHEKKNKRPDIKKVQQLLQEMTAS
Protocol: In the hPBMC IRAK4 degradation flow assay, frozen PBMCs were thawed into RPMI with 10% FBS and allowed to recover. On the same day as thawed, PBMCs were plated in 96 well plate, 90 μL per well. Compound plates were prepared and a 10 point, 5-fold dilution was performed with a final DMSO concentration of 0.1%. Compound 10 μL per well was added, sealed and incubated at 37° C., 5% CO2 for 20 hours (for 4 hour treatment, compounds were prepared and added the following day). Following the treatment incubation period (day 1), 1.6% PFA was added to PBMC plate and placed on plate shaker for 30 seconds and incubated for 10 mins at room temperature. Cells were spun down and washed two times with PBS/0.5% BSA, aspirated to pellet and placed into −80° C. freezer until further processing for flow. On the flow run day, PBMC plates were thawed and samples were transferred to PCR plates. The pre-perm staining cocktail (CD3 Ax488/CD8 BUV805/CD14 BUV395/CD16/56 BV711/CD19 BV785) was added to samples and incubated for 30 minutes at room temperature. Samples were washed two times and permeabilized with methanol for 10 minutes at 4° C. Samples were washed two times and the post-perm staining cocktail (CD4 PE/IRAK4 Ax647 BD #560315) was added and incubated for 30 minutes at room temperature. Samples were washed two times with PBS/BSA and run on a BD LSRFortessa. Mononuclear cells are gated by SSCH/FSCH and single cells. Monocytes are then gated through CD14 positive gate and lymphocytes are gated through CD14 negative gate. To determine absolute DC50 and max degradation values, MFI values were normalized to DMSO max and 20 hour 10 µM min control. Twenty hour dose curves were calculated using a 4 parameter logistic regression curve fit, no constraints (Top doses were removed if hook effects were observed and the bottom was constrained to 0).
(§1) IRAK4 MSD degradation in OCI-LY10 results at 4 and 24 hrs and hPBMC at 20 hrs for compounds of the invention are presented in Table 3. The letter codes for IRAK4 DC50 include: A (<0.1 μM), B (0.1-1.0 μM), C(>1.0-10.0 μM), D (>10.0 μM or not determined).

IRAK4 [2] = target: T1, IRAK4; test: IRAK4 degradation in OCI-LY10 (MSD, Meso Scale Discovery); type: cell-based; design: endogenous in cells; host or cells: OCI-LY10; conditions: OCI-LY10 cells, 24 h
Protocol: Degradation of IRAK4 in OCI-LY10 was quantitatively measured using Meso Scale Discovery technology. OCI-LY10 cells were seeded in 96-well plates (Corning 3799) with a density of 300,000 cells per well in 100 μL fresh media. Compounds were then added to the assay plates with a final top concentration of 1 to 10 μM in a 1:3 dilution series with total of 8 doses. The assay plates were then incubated for 4 to 24 hours at 37° C. under 5% CO2. The assay plates were then centrifuged for 5 minutes and the cell pellets were treated with 100 μL/well RIPA lysis buffer (Boston BioProducts BP-115D) with proteinase inhibitors. To prepare MSD assay plates (Meso Scale Discovery Catalog number L15XA-3), the plates were coated with 2 ug/mL capture antibody (mouse Anti-IRAK4 antibody [2H9], ab119942) in PBS, at 40 μL/well. The plates were then incubated overnight at […], washed 3 times with 150 μL/well TBST buffer (Cell Signaling Technology, Catalog number 9997S) and blocked with 150 μL/well blocking buffer (Meso Scale Discovery Catalog number R^93BA-4). Cell lysates were then added to MSD assay plates and the plates were incubated at room temperature for 1 hour. The plates were then washed 3 times with 150 μL/well TBST buffer and 25 μL/well primary detection antibody (rabbit Anti-IRAK4 antibody [Y279], from Abcam. Catalog number ab32511, 1 μg/mL). The assay plates were then incubated at room temperature for 1 hour, washed 3 times with 150 μL/well TBST buffer and 25 μL/well secondary detection antibody, SULFO-TAG anti-rabbit antibody were added (anti-rabbit antibody from Meso Scale Discovery, Catalog number R^32AB-1, 1 μg/mL). The assay plates were then incubated at room temperature for 1 hour, washed 3 times with 150 μL/well TBST buffer, and 150 μL/well MSD reading buffer (Meso Scale Discovery catalog number R^92TC-2) was added. The plates were then analyzed by a MSD reader (Meso Scale Discovery, Model Quick Plex SQ 120). The data was then analyzed by software Prism 7.0 from GraphPad and the dose-depended IRAK4 degradation were fit using a three-parameter logistic equation to calculate DC50.
as §1

SMILES | DC50 (IRAK4 [1]) [µM] | DC50 (IRAK4 [2]) [µM]
O=C(O)Cn1cc(NC(=O)[C@H]2CCCN(c3cncc(C4CCN(C[C@H]5CC[C@H](n6cc(NC(=O)c7cnn8ccc(N9C[C@H]%10C[C@@H]9CO%10)nc78)c(C(F)F)n6)CC5)CC4)c3)C2)ccc1=O [Compound I-12] | > 10 | > 10
CC(C)(O)c1cc2nn([C@H]3CC[C@H](CNCCCCCCCCCC4=CC(c5cccnc5)CC(C(=O)Nc5ccc(=O)n(CC(=O)O)c5)=C4)CC3)cc2cc1NC(=O)c1cccc(C(F)(F)F)n1 (stereo partly drawn) [Compound I-60] | > 10 | > 10
CCOC(=O)Cn1cc(NC(=O)c2cccc(-c3cncc(CCCCCCNC[C@H]4CC[C@H](n5cc(NC(=O)c6cnn7ccc(N8C[C@H]9C[C@@H]8CO9)nc67)c(C(F)F)n5)CC4)c3)c2)ccc1=O [Compound I-99] | > 10 | > 10
COc1cc2nn([C@H]3CC[C@H](CNCCOCCOCCOc4cncc(N5CCC[C@H](C(=O)Nc6ccc(=O)n(CC(=O)O)c6)C5)c4)CC3)cc2cc1NC(=O)c1cccc(C(F)(F)F)n1 [Compound I-40] | > 10 | > 10
CCOC(=O)Cn1cc(NC(=O)c2cc(CCCCCCCCCNC[C@H]3CC[C@H](n4cc5cc(NC(=O)c6cccc(C(F)(F)F)n6)c(C(C)(C)O)cc5n4)CC3)cc(-c3cccnc3)c2)ccc1=O [Compound I-72] | 1 to 10 | 1 to 10
CC(C)(O)c1cc2nn([C@H]3CC[C@H](CNCCCCCCn4ccc5c(C(=O)Nc6ccc(=O)n(CC(=O)O)c6)cccc54)CC3)cc2cc1NC(=O)c1cccc(C(F)(F)F)n1 [Compound I-58] | > 10 | > 10
COC(=O)Cn1cc(NC(=O)c2cccc(-c3cncc4c(CCCCCCNC[C@H]5CC[C@H](n6cc7cc(NC(=O)c8cccc(C(F)(F)F)n8)c(C(C)(C)O)cc7n6)CC5)cccc34)c2)ccc1=O [Compound I-56] | > 10 | > 10
CCOC(=O)Cn1cc(NC(=O)[C@H]2CCCN(c3cncc(OCCOCCOCCNC[C@H]4CC[C@H](n5cc6cc(NC(=O)c7cccc(C(F)(F)F)n7)c(OC)cc6n5)CC4)c3)C2)ccc1=O [Compound I-41] | > 10 | > 10
COc1cc2nn([C@H]3CC[C@H](CN(C)CC4CCN(c5cncc(N6CCCC(C(=O)Nc7ccc(=O)n(CC(=O)O)c7)C6)c5)CC4)CC3)cc2cc1NC(=O)c1cccc(C(F)(F)F)n1 (stereo partly drawn) [Compound I-19] | > 10 | > 10
COc1cc2nn([C@H]3CC[C@H](CNCCc4cncc(N5CCC[C@H](C(=O)Nc6ccc(=O)n(CC(=O)O)c6)C5)c4)CC3)cc2cc1NC(=O)c1cccc(C(F)(F)F)n1 [Compound I-26] | > 10 | > 10
CCOC(=O)Cn1cc(NC(=O)[C@H]2CCCN(c3cncc(NCCNC[C@H]4CC[C@H](n5cc6cc(NC(=O)c7cccc(C(F)(F)F)n7)c(OC)cc6n5)CC4)c3)C2)ccc1=O [Compound I-14] | > 10 | > 10
CCOC(=O)Cn1cc(NC(=O)[C@H]2CCCN(c3cncc(C4CCN(C[C@H]5CC[C@H](n6cc7cc(NC(=O)c8cccc(C(F)(F)F)n8)c(OC)cc7n6)CC5)CC4)c3)C2)ccc1=O [Compound I-17] | 1 to 10 | > 10
CCOC(=O)Cn1cc(NC(=O)[C@H]2CCCN(c3cncc(N4CCC(CN(C)C[C@H]5CC[C@H](n6cc(NC(=O)c7cnn8ccc(N9C[C@H]%10C[C@@H]9CO%10)nc78)c(C(F)F)n6)CC5)CC4)c3)C2)ccc1=O [Compound I-34] | > 10 | > 10
CCOC(=O)Cn1cc(NC(=O)c2cc(CCCCCCNC[C@H]3CC[C@H](n4cc(NC(=O)c5cnn6ccc(N7C[C@H]8C[C@@H]7CO8)nc56)c(C(F)F)n4)CC3)cc(-c3cccnc3)c2)ccc1=O [Compound I-98] | > 10 | > 10
CCOC(=O)Cn1cc(NC(=O)[C@H]2CCCN(c3cncc(NCCOCCOCCOCCOCCNC[C@H]4CC[C@H](n5cc(NC(=O)c6cnn7ccc(N8C[C@H]9C[C@@H]8CO9)nc67)c(C(F)F)n5)CC4)c3)C2)ccc1=O [Compound I-6] | > 10 | > 10
CCOC(=O)Cn1cc(NC(=O)c2cc(CCCCCCCCCNC[C@H]3CC[C@H](n4cc(NC(=O)c5cnn6ccc(N7C[C@H]8C[C@@H]7CO8)nc56)c(C(F)F)n4)CC3)cc(-c3cccnc3)c2)ccc1=O [Compound I-75] | > 10 | 1 to 10
COc1cc2nn([C@H]3CC[C@H](CN4CCC(OCC#Cc5cncc(N6CCC[C@H](C(=O)Nc7ccc(=O)n(CC(=O)O)c7)C6)c5)CC4)CC3)cc2cc1NC(=O)c1cccc(C(F)(F)F)n1 [Compound I-9] | 0.1 to 1 | > 10
CCOC(=O)Cn1cc(NC(=O)[C@H]2CCCN(c3cncc(OCCOCCOCCNC[C@H]4CC[C@H](n5cc(NC(=O)c6cnn7ccc(N8C[C@H]9C[C@@H]8CO9)nc67)c(C(F)F)n5)CC4)c3)C2)ccc1=O [Compound I-45] | 1 to 10 | > 10
COc1cc2nn([C@H]3CC[C@H](CNCCOCCOCCOCCOCCNc4cncc(N5CCC[C@H](C(=O)Nc6ccc(=O)n(CC(=O)O)c6)C5)c4)CC3)cc2cc1NC(=O)c1cccc(C(F)(F)F)n1 [Compound I-3] | > 10 | > 10
CCOC(=O)Cn1cc(NC(=O)[C@H]2CCCN(c3cncc(CCCCCCNC[C@H]4CC[C@H](n5cc(NC(=O)c6cnn7ccc(N8C[C@H]9C[C@@H]8CO9)nc67)c(C(F)F)n5)CC4)c3)C2)ccc1=O [Compound I-32] | > 10 | > 10
O=C(O)Cn1cc(NC(=O)c2cccc3c2ccn3CCCCCCNC[C@H]2CC[C@H](n3cc(NC(=O)c4cnn5ccc(N6C[C@H]7C[C@@H]6CO7)nc45)c(C(F)F)n3)CC2)ccc1=O [Compound I-59] | > 10 | > 10
O=C(O)Cn1cc(NC(=O)c2cc(CCCNC[C@H]3CC[C@H](n4cc(NC(=O)c5cnn6ccc(N7C[C@H]8C[C@@H]7CO8)nc56)c(C(F)F)n4)CC3)cc(-c3cccnc3)c2)ccc1=O [Compound I-76] | > 10 | > 10
CCOC(=O)Cn1cc(NC(=O)[C@H]2CCCN(c3cncc(NCCOCCOCCNC[C@H]4CC[C@H](n5cc6cc(NC(=O)c7cccc(C(F)(F)F)n7)c(OC)cc6n5)CC4)c3)C2)ccc1=O [Compound I-5] | 1 to 10 | > 10
CC(C)(O)c1cc2nn([C@H]3CC[C@H](CNCCCCCCc4cncc(-c5cccc(C(=O)Nc6ccc(=O)n(CC(=O)O)c6)c5)c4)CC3)cc2cc1NC(=O)c1cccc(C(F)(F)F)n1 [Compound I-94] | > 10 | 1 to 10
